Literature values, collected in patent US8956669B2, “Anticancer and antimicrobial compounds from antarctic extremophilic microorgansims” (priority 2009, dated 2015).
Marks after values point to notes of the source that are not given here.

Assays:
Mycobacterium smegmatis = conditions: literature values, Table 2
[1] = tested on: Mycobacterium tuberculosis; conditions: literature values, Table 2

NNC(=O)c1ccncc1 [Isoniazid]
MIC against Mycobacterium smegmatis (Mycobacterium smegmatis): 5^b μg/ml | MIC against Mycobacterium tuberculosis [1]: 0.1^f μg/ml

CO[C@H]1/C=C/O[C@@]2(C)Oc3c(C)c(O)c4c(O)c(c(/C=N/N5CCN(C)CC5)c(O)c4c3C2=O)NC(=O)/C(C)=C\C=C\[C@H](C)[C@H](O)[C@@H](C)[C@@H](O)[C@@H](C)[C@H](OC(C)=O)[C@@H]1C [Rifampcin]
MIC against Mycobacterium smegmatis (Mycobacterium smegmatis): 1^b μg/ml | MIC against Mycobacterium tuberculosis [1]: 0.1^f μg/ml

Cc1cc(O)c2c(c1)C(=O)C(c1c(C)cc3c(c1O)C(=O)C=CC3=O)=CC2=O [Diospyrin]
MIC against Mycobacterium smegmatis (Mycobacterium smegmatis): 100^j μg/ml | MIC against Mycobacterium tuberculosis [1]: 100^j μg/ml

CC1=CC(=O)c2c(O)cccc2C1=O [plumbagin]
MIC against Mycobacterium smegmatis (Mycobacterium smegmatis): 1.22^l μg/ml | MIC against Mycobacterium tuberculosis [1]: 39.06^l μg/ml

O=C(O)c1cn(C2CC2)c2cc(N3CCNCC3)c(F)cc2c1=O [Ciprofloxacin]
MIC against Mycobacterium smegmatis (Mycobacterium smegmatis): 1^c μg/ml | MIC against Mycobacterium tuberculosis [1]: 0.5^g μg/ml

C=CCS[S+]([O-])CC=C (stereo not drawn) [Allicin]
MIC against Mycobacterium tuberculosis [1]: 25^k μg/ml

Oc1ccc(C=Cc2cc(O)cc(O)c2)cc1 [Resveratrol]
MIC against Mycobacterium smegmatis (Mycobacterium smegmatis): 64^a μg/ml

COc1ccc(-c2coc3cc(O)cc(O)c3c2=O)cc1 [Biochanin A]
MIC against Mycobacterium smegmatis (Mycobacterium smegmatis): 256^a μg/ml

COC(=O)[C@H]1[C@H]2C[C@@H]3c4[nH]c5cc(OC)ccc5c4CCN3C[C@H]2C[C@@H](OC(=O)c2cc(OC)c(OC)c(OC)c2)[C@@H]1OC [Reserpine]
MIC against Mycobacterium smegmatis (Mycobacterium smegmatis): 128^a μg/ml

COc1ccc(CCN(C)CCCC(C#N)(c2ccc(OC)c(OC)c2)C(C)C)cc1OC (stereo not drawn) [Verapamil]
MIC against Mycobacterium smegmatis (Mycobacterium smegmatis): 256^a μg/ml

O=c1c(O)c(-c2cc(O)c(O)c(O)c2)oc2cc(O)cc(O)c12 [Myricetin]
MIC against Mycobacterium smegmatis (Mycobacterium smegmatis): 32^a μg/ml

O=c1c(-c2ccc(O)cc2)coc2cc(O)ccc12 [Daidzein]
MIC against Mycobacterium smegmatis (Mycobacterium smegmatis): 256^a μg/ml

CN(C)CCCN1c2ccccc2Sc2ccc(Cl)cc21 [Chlorpromazine]
MIC against Mycobacterium smegmatis (Mycobacterium smegmatis): 64^a μg/ml

O=c1c(-c2ccc(O)cc2)coc2cc(O)cc(O)c12 [Genistein]
MIC against Mycobacterium smegmatis (Mycobacterium smegmatis): 256^a μg/ml

Diospyrone
MIC against Mycobacterium smegmatis (Mycobacterium smegmatis): 1.22^l μg/ml | MIC against Mycobacterium tuberculosis [1]: 39.06^l μg/ml

O=c1cc(-c2ccc(O)c(O)c2)oc2cc(O)cc(O)c12 [Luteolin]
MIC against Mycobacterium smegmatis (Mycobacterium smegmatis): 32^a μg/ml | MIC against Mycobacterium tuberculosis [1]: 200^d μg/ml

Laburnetin
MIC against Mycobacterium tuberculosis [1]: 4.88^e μg/ml

O=c1cc(-c2ccccc2)oc2cc(O)c(O)c(O)c12 [Baicalein]
MIC against Mycobacterium smegmatis (Mycobacterium smegmatis): 64^a μg/ml

O=c1cc(-c2ccccc2O)oc2cc(O)cc(O)c12 [5,7,2′-trihydroxyflavone]
MIC against Mycobacterium smegmatis (Mycobacterium smegmatis): 31^h μg/ml | MIC against Mycobacterium tuberculosis [1]: 10^h μg/ml

Cc1cc(O)c2c(c1)C(=O)c1c(oc3c1c(=O)oc1cccc(C)c13)C2=O [crassiflorone]
MIC against Mycobacterium smegmatis (Mycobacterium smegmatis): 1.22^l μg/ml | MIC against Mycobacterium tuberculosis [1]: 39.06^l μg/ml

O=C(O)[C@H]1O[C@@H](Oc2cc3oc(-c4ccccc4)cc(=O)c3c(O)c2O)[C@H](O)[C@@H](O)[C@@H]1O [Baicalin]
MIC against Mycobacterium smegmatis (Mycobacterium smegmatis): 256^a μg/ml
